# Laboratory results reported in patent US20240108602A1, “TREATMENT OF MENTAL DISORDERS” (GH Research Ireland Limited, priority 2022, published 2024).
# Read-outs that look alike come from different tables or passages of the source.
# Columns and labels:
# [1] = 5-MeO-DMT, 5-MIAA and bufotenine in urine, serum and breastmilk of a lactating PPD patient, LC-MS/MS
# Experimental: The second patients was lactating, and, per the clinical trial protocol, breastmilk samples were collected pre-dosing and at multiple timepoints after administration of the last dose. […] Similar analyses were carried out on patient serum and urine samples.
# human hepatocytes [2] = test: Metabolic stability in Hμrel human hepatocyte co-culture model
# [3] = as above; conditions: human, Hμrel HumanPool primary human hepatocyte co-culture
# [4] = Plasma binding of 5-MIAA (unbound fraction); type: in vitro ADME
# Experimental: Binding to human plasma protein was determined. Reported are the unbound fraction (fu) for three replicates as well as the mean unbound fraction, the standard deviation and the mean % recovery (Table 8).
# [5] = Daily Infant Dosage (DID) and Relative Infant Dose (RID) calculated from breast milk concentrations; conditions: 5 kg infant, three 250 ml feeds
# Description: When determining the potential impact of maternal drug administration on a breastfed infant, it is standard practice to calculate the Relative Infant Dose (RID) (Bennett, P. N., and L. J. Notarianni. “Risk from drugs in breast milk: an analysis by relative dose.” Br J Clin Pharmacol 42.5 (1996): P673-4). The RID is the dosage (in μg/kg/day) the infant is exposed to by the intake of breast milk, divided by the dosage (in μg/kg/day) the mother receives.
# Using estimates for daily intake of breast milk and the number of feeds as well as the measured breast milk concentrations the exposure of the infant can be determined.
# For example, a published estimate for daily intake of breast milk as a function of infant weight is 150 ml/kg/day. To model the exposure, it is assumed that an infant of 5 kg is fed three times over 24 hours, receiving 250 ml breast milk each time.
# Since the amount actually delivered to the patient may be lower than the indicated dose, a calculation of the RID is also carried out assuming that the actually delivered amount is only 50% of the indicated dose so that any a potential underestimation of the infant exposure is avoided.
# human hepatocytes [6] = test: Metabolite identification after incubation of 5-MeO-DMT with human hepatocytes; conditions: 5-MeO-DMT free base 10 μM, up to 120 minutes
# Experimental: For incubations with cryopreserved hepatocytes, the 2 mM stock solution was diluted with Leibovitz L-15 medium to a concentration of 20 μM or 2 μM. An aliquot (250 μL) of the 20 μM and 2 μM test substance formulations was added to each hepatocyte incubation sample (250 μL), as appropriate, so that the final test substance concentration in the incubations was 10 μM or 1 μM, respectively, and incubations contained less than 1% (v/v) solvent.
# Incubations were performed at ca. 37° C. in a shaking water bath (total incubation volume 0.5 mL). For 1 μM, incubations were terminated after 0, 5, 10, 20, 30, 60 and 120 minutes, by the addition of ice-cold acetonitrile (0.5 mL).
# The samples were vortex mixed and centrifuged at ca 13,000 rpm for 10 minutes at room temperature. Following centrifugation, the protein-free supernatants were removed for analysis.
# Blank control incubations were carried out with Leibovitz L-15 medium in place of the test substance. No cells control samples were performed with Leibovitz L-15 medium in place of hepatocytes. Aliquots of the blank control samples were taken at 120 minutes, while no cells control samples were taken at 0, 30 and 120 for 1 μM incubations and at 0 and 120 minutes for 10 μM incubations.
# All 1 μM incubations were performed in duplicate, while all 10 μM incubations were performed in singlet. All samples were stored at −80° C. (nominal) prior to analysis.
# Prior to sample analysis a 100 μL aliquot of each sample was evaporated to near dryness under a steady stream of nitrogen at room temperature, and subsequently reconstituted in 50 μL of mobile phase A (0.1% formic acid in water). Each sample (0, 30 and 120-minute, 10 μM) was analysed using accurate mass LC-MS to determine relative levels of parent compound at each time-point, and determine the profile of metabolites formed. Appropriate blank and control samples were also analysed. The 10 and 60-minute, 10 μM incubation samples were not analysed and were stored at −80° C. (nominal).
# Data were interrogated for the presence of metabolites by comparison of retention times with the test substance reference standard and based on the accurate masses of potential metabolites using screening software (UNIFI version 1.9.4), and user defined search parameters. To confirm a suspected metabolite, the measured accurate mass of the peak detected in the sample used for structural elucidation had to be within 5 ppm of the theoretical mass in order to confirm the molecular formula.
# [7] = female, human, breast milk, inhaled
compound,measurement,setting,value
"COc1ccc2[nH]cc(CC(=O)O)c2c1 [5-MIAA, 5-methoxyindole-3-acetic acid]",urine concentration relative to serum (times higher),[1]; 2.5 hours,approx. 127 times
same,Breastmilk concentration,[1]; 120.0 hrs after last dose,BLQ (BLQ: Below limit of quantification. The lower limit of quantification is 25 pg/ml for both 5-MeO-DMT and 5-MIAA in both serum and breastmilk; it is 25 pg/ml in urine for 5-MeO-DMT and 250 pg/ml for 5-MIAA in urine.)
same,concentration at 2.5 h,[1]; [7],13.2 ng/mL
same,concentration at 8.5 h,[1]; [7],0.359 ng/mL
same,concentration at 2.5 h,"[1]; female, human, urine, inhaled",13000 ng/mL
same,Breastmilk concentration,[1]; −24.0 hrs (pre-dosing),BLQ (BLQ: Below limit of quantification. The lower limit of quantification is 25 pg/ml for both 5-MeO-DMT and 5-MIAA in both serum and breastmilk; it is 25 pg/ml in urine for 5-MeO-DMT and 250 pg/ml for 5-MIAA in urine.)
same,relative LC/MS peak area,"human hepatocytes [2]; 1 μM Hepatocytes, 0 h",100%
same,relative LC/MS peak area,"human hepatocytes [2]; 1 μM Hepatocytes, 1 h",98%
same,relative LC/MS peak area,"human hepatocytes [2]; 1 μM Hepatocytes, 2 h",100%
same,relative LC/MS peak area,"human hepatocytes [2]; 1 μM Hepatocytes, 4 h",99%
same,relative LC/MS peak area,"human hepatocytes [2]; 1 μM Hepatocytes, 8 h",95%
same,relative LC/MS peak area,"human hepatocytes [2]; 1 μM Hepatocytes, 24 h",99%
same,relative LC/MS peak area,"human hepatocytes [2]; 1 μM Hepatocytes, 48 h",88%
same,relative LC/MS peak area,"human hepatocytes [2]; 1 μM Hepatocytes, 72 h",82%
same,relative LC/MS peak area,"human hepatocytes [2]; 1 μM Stromal cells, 0 h",100%
same,relative LC/MS peak area,"human hepatocytes [2]; 1 μM Stromal cells, 4 h",103%
same,relative LC/MS peak area,"human hepatocytes [2]; 1 μM Stromal cells, 8 h",107%
same,relative LC/MS peak area,"human hepatocytes [2]; 1 μM Stromal cells, 24 h",108%
same,relative LC/MS peak area,"human hepatocytes [2]; 1 μM Stromal cells, 48 h",111%
same,relative LC/MS peak area,"human hepatocytes [2]; 1 μM Stromal cells, 72 h",135%
same,relative LC/MS peak area,"human hepatocytes [2]; 10 μM Hepatocytes, 0 h",100%
same,relative LC/MS peak area,"human hepatocytes [2]; 10 μM Hepatocytes, 1 h",97%
same,relative LC/MS peak area,"human hepatocytes [2]; 10 μM Hepatocytes, 2 h",100%
same,relative LC/MS peak area,"human hepatocytes [2]; 10 μM Hepatocytes, 4 h",103%
same,relative LC/MS peak area,"human hepatocytes [2]; 10 μM Hepatocytes, 8 h",96%
same,relative LC/MS peak area,"human hepatocytes [2]; 10 μM Hepatocytes, 24 h",96%
same,relative LC/MS peak area,"human hepatocytes [2]; 10 μM Hepatocytes, 48 h",86%
same,relative LC/MS peak area,"human hepatocytes [2]; 10 μM Hepatocytes, 72 h",75%
same,relative LC/MS peak area,"human hepatocytes [2]; 10 μM Stromal cells, 0 h",100%
same,relative LC/MS peak area,"human hepatocytes [2]; 10 μM Stromal cells, 4 h",101%
same,relative LC/MS peak area,"human hepatocytes [2]; 10 μM Stromal cells, 8 h",106%
same,relative LC/MS peak area,"human hepatocytes [2]; 10 μM Stromal cells, 24 h",97%
same,relative LC/MS peak area,"human hepatocytes [2]; 10 μM Stromal cells, 48 h",103%
same,relative LC/MS peak area,"human hepatocytes [2]; 10 μM Stromal cells, 72 h",115%
same,metabolic turnover,human hepatocytes [2]; human hepatocytes,low metabolic turnover
same,predicted hepatic extraction ratio,"human hepatocytes [2]; human, Hμrel HumanPool primary human hepatocyte co-culture",2%
same,remaining abundance after 72 h,"human hepatocytes [2]; in the presence of hepatocytes, 1 and 10 μM",75-82%
same,disappearance with stromal cell controls,human hepatocytes [2]; stromal cell controls,no disappearance
same,half-life at 1 μM,[3],10.7 days
same,hepatocyte CLint at 1 μM,[3],0.15 µL/min/1e6 cells
same,recovery,[4]; human,81.4%
same,fraction unbound,"[4]; human plasma, read-out: plasma binding (mean fraction unbound)",~0.5
same,fraction unbound,"[4]; human, read-out: Mean fu",0.502
same,fraction unbound,"[4]; human, read-out: unbound fraction (fu), Replicate 1",0.499
same,fraction unbound,"[4]; human, read-out: unbound fraction (fu), Replicate 2",0.462
same,fraction unbound,"[4]; human, read-out: unbound fraction (fu), Replicate 3",0.544
same,Daily Infant Dosage (DID) of 5-MIAA,[5],0.006886 mg/day
same,Daily Infant Dosage (DID) of 5-MIAA per kg,[5],0.001377 mg/kg/day
same,Relative Proportion of compound after incubation of 5-MeO-DMT,human hepatocytes [6],about 60%
same,Relative Proportion of compound after incubation of 5-MeO-DMT,human hepatocytes [6]; listed as 5-Methoxyindole acetic acid (5-MIAA),61%
